Molecular target: PrP^res (Homo sapiens, UniProt P04156)
Type: cell-based

## COC[C@H]1O[C@@H]2O[C@H]3[C@H](O)[C@@H](OC)[C@@H](O[C@H]4[C@H](O)[C@@H](OC)[C@@H](O[C@H]5[C@H](O)[C@@H](OC)[C@@H](O[C@H]6[C@H](O)[C@@H](OC)[C@@H](O[C@H]7[C@H](O)[C@@H](OC)[C@@H](O[C@H]8[C@H](O)[C@@H](OC)[C@@H](O[C@H]1[C@H](O)[C@H]2OC)O[C@@H]8COC)O[C@@H]7COC)O[C@@H]6COC)O[C@@H]5COC)O[C@@H]4COC)O[C@@H]3COC [DIMEB, heptakis(2,6-O-dimethyl)beta-cyclodextrin]
  PrP^Sc accumulation: significantly decreased

Reference: EP3603649A1 (priority 2018, dated 2020)
